Columns and labels:
[1] = target: T1, wild type ABL kinase core (Homo sapiens, UniProt P00519, DEL15-56); assay: ADP Quest kinetic kinase assay, wild type ABL core; type: biochemical; conditions: 30 min pre-incubation; ATP and substrate at Km; mean ± SE, triplicate; read-out: EC50 for activation of ABL core
T1 construct: ABL core proteins (residues 1–531 with an internal deletion of residues 15–56); made in house; host or cells: Sf9 insect cells

[2] = tested on: ABL core with high-affinity linker (HAL); assay: ADP Quest kinetic kinase assay, high-affinity linker ABL core; type: biochemical, human; conditions: 10 μM; ATP and substrate at Km
Procedure: The ADP Quest assay (DiscoverRx), which fluorimetrically measures kinase activity as the production of ADP, was used to determine ABL kinase reaction velocities. Assays were performed in quadruplicate in black 384 well plates (Corning #3571) in reaction volumes of 10 μL/well. […] The […] substrate peptide for ABL (EAIYAAPFAKKK) as well as the SFK substrate peptide ([…]) were dissolved in the ADP Quest assay buffer (15 mM HEPES, pH 7.4, 20 mM NaCl, 1 mM EGTA, 0.02% Tween-20, 10 mM MgCl2, 0.1 mg/ml bovine γ-globulins), while ATP stocks were prepared in 10 mM Tris-HCl (pH 7.0). Each kinase reaction was initiated by the addition of ATP and read at 5 min intervals for 3 h in a SpectraMax M5 Microplate reader (Molecular Devices). […] The resulting progress curves were analyzed according to the method of Moroco et al.. Briefly, raw fluorescence data were corrected for non-enzymatic ADP production (no kinase or substrate control) and kinase auto-phosphorylation (rate observed in the absence of substrate), and converted to pmol ADP produced using an ADP standard curve generated under the same reaction conditions. The resulting values were normalized to the amount of kinase present in each reaction, and plotted against time. […] Substrate and ATP Km values were determined by non-linear regression analysis using the Michaelis-Menten equation (GraphPad Prism 6).

[3] = target: T1, wild type ABL kinase core; assay: ADP Quest kinetic kinase assay, wild type ABL core; type: biochemical; conditions: for Activation constant Kact: concentration giving half-maximum velocity; for Activation constant Kact / Vmax: mean ± SE; for Vmax: maximal reaction velocity with activator; for Vmax/Kact: overall enhancement of catalytic efficiency
Procedure: The ADP Quest assay (DiscoverRx), which fluorimetrically measures kinase activity as the production of ADP, was used to determine ABL kinase reaction velocities. Assays were performed in quadruplicate in black 384 well plates (Corning #3571) in reaction volumes of 10 μL/well. Recombinant kinase protein concentrations were fixed at 40 ng/well for the wild type ABL core, 9 ng/well for the high affinity linker ABL core, and 250 ng/well for the SRC family kinase HCK. The Tyr2 substrate peptide for ABL (EAIYAAPFAKKK) as well as the SFK substrate peptide (YIYGSFK) were dissolved in the ADP Quest assay buffer (15 mM HEPES, pH 7.4, 20 mM NaCl, 1 mM EGTA, 0.02% Tween-20, 10 mM MgCl2, 0.1 mg/ml bovine γ-globulins), while ATP stocks were prepared in 10 mM Tris-HCl (pH 7.0). Each kinase reaction was initiated by the addition of ATP and read at 5 min intervals for 3 h in a SpectraMax M5 Microplate reader (Molecular Devices). To determine the substrate Km for ABL kinases, the ATP concentration was fixed at 50 μM and the substrate peptide was serially diluted from 0.2–200 μM. For ABL kinase ATP Km determination, the substrate concentration was fixed at the respective substrate Km for each of the kinases, and the ATP concentration was titrated over the range of 0.2–200 μM. The resulting progress curves were analyzed according to the method of Moroco et al.. Briefly, raw fluorescence data were corrected for non-enzymatic ADP production (no kinase or substrate control) and kinase auto-phosphorylation (rate observed in the absence of substrate), and converted to pmol ADP produced using an ADP standard curve generated under the same reaction conditions. The resulting values were normalized to the amount of kinase present in each reaction, and plotted against time. The linear portion of each progress curve was fit by regression analysis to determine the reaction velocity. Substrate and ATP Km values were determined by non-linear regression analysis using the Michaelis-Menten equation (GraphPad Prism 6).
Half-maximal effective concentrations (EC50) and activation constants (Kact) were determined for the ABL kinase core by both dipyridamole and the known ABL activator, DPH (5-(1,3-diaryl-1H-pyrazol-4-yl)hydantoin; Sigma-Aldrich). The kinase was pre-incubated with each compound (10 nM to 100 μM) for 30 min at room temperature, followed by kinase assay with the substrate and ATP concentrations fixed at their respective Km values. The rate of each reaction was plotted against compound concentration, and analyzed by non-linear regression analysis (GraphPad Prism 6) to determine the EC50 value. To determine the activation constant Kact, the basal rate of kinase activity was subtracted from the rates of reaction in the presence of each compound concentration, and plotted as a function of compound concentration. The resulting curves obeyed saturation kinetics and were best-fit by the following equation [19]: Va= Vact[L]/(Kact+[L]) where Va is the reaction velocity in the presence of each activator concentration, Vact is the maximal reaction velocity, L is the activator concentration, and Kact is the activator concentration that yields half-maximal reaction velocity.

[4] = tested on: wild type ABL core expressed in 293T cells; assay: ABL core autophosphorylation in transfected 293T cells (immunoblot); type: cell-based, human; conditions: for Effect on ABL phosphorylation (pY412, pY245, pY89), compound alone: compound 142 1–10 μM or DPH 10 μM
Procedure: ABL core proteins were expressed in human 293T cells and analyzed for kinase activity as described elsewhere. Briefly, cells were grown overnight in 60 mm plates, transfected with an expression vector for the wild type ABL core, and treated with compounds 2 h post- transfection. Cells were lysed by sonication 24 h later, and cell lysates clarified by centrifugation. ABL was immunoprecipitated via the C-terminal His-tag, resolved by SDS-PAGE, and transferred to nitrocellulose membranes for immunoblot analysis with antibodies to the ABL protein and the three autophosphorylation sites: pTyr412 (activation loop), pTyr245 (SH2-kinase linker), and pTyr89 (SH3 domain).

ABL SH3 domain = target: T2, ABL SH3 domain (Homo sapiens, UniProt P00519); assay: FP assay with isolated ABL SH3 domain and p41 probe; type: binding; conditions: significant inhibition at 3 and 10 μM
T2 construct: we performed FP assays with the N32L protein as well as the isolated ABL SH3 domain; made in house
T2 sequence (P00519 61-121 limits assumed): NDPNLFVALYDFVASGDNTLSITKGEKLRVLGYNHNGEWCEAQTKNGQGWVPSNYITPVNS
Procedure: (§1) Fluorescence Polarization (FP) experiments were performed in quadruplicate in low volume black 384 well plates with a non-binding surface (Corning; catalog # 3676). Peptides and proteins were added to each well in FP assay buffer (20 mM Tris-HCl, pH 8.3) for a final assay volume of 20 μL and mixed by shaking for 5 min at room temperature. The FP signal in millipolarization (mP) units was measured at an excitation wavelength of 485 nm and emission wavelength of 515 nm in a SpectraMax M5 microplate reader (Molecular Devices) using the Softmax Pro software (version 5.4.1). Each plate was read three times and the values were averaged prior to analysis. Raw fluorescence intensity was also read at the same wavelengths for each assay.

isolated ABL SH3 domain = target: T3, isolated ABL SH3 domain (Homo sapiens, UniProt P00519); assay: Surface plasmon resonance, isolated SH3 domain; type: binding; conditions: SPR, data not shown
T3 construct: we performed FP assays with the N32L protein as well as the isolated ABL SH3 domain; made in house
T3 sequence (P00519 61-121 limits assumed): as above
Procedure: (§2) SPR analysis was performed on a BIAcore T100 instrument (GE Healthcare) using four-channel CM5 biosensor chips at 25°C. Recombinant purified ABL proteins were covalently attached to the CM5 chip via standard amine coupling chemistry. Compound 142 (dipyridamole; Prestwick Chemical) was prepared in 20 mM Tris-HCl, pH 8.3, 150 mM NaCl and 0.1% DMSO and flowed past the immobilized ABL protein channel and a reference channel on the biosensor at a flow rate of 50 μL/min for 3 min over a range of concentrations. The initial binding reaction was followed by dissociation for 5 min, and the chip surface was regenerated using 20 mM Tris-HCl, pH 8.3, 150 mM NaCl, 0.1% DMSO, 0.05% Tween 20 and 1 mM DTT at a flow rate of 50 μL/min for 10 min. Sensorgrams were recorded in triplicate, corrected for buffer effects, and fitted with the 1:1 Langmuir binding model using the BIAevaluation software suite version 2.0.4 (GE Healthcare).

SRC-family kinase HCK = target: T4, SRC-family kinase HCK (Homo sapiens, UniProt P08631, Q523E/Q524E/Q525I); assay: ADP Quest kinetic kinase assay, HCK; type: biochemical; conditions: 1 μM; recombinant near-full-length downregulated HCK
T4 construct: made in house; host or cells: Sf9 insect cells
T4 sequence (P08631 78-526 Q523E/Q524E/Q525I limits assumed): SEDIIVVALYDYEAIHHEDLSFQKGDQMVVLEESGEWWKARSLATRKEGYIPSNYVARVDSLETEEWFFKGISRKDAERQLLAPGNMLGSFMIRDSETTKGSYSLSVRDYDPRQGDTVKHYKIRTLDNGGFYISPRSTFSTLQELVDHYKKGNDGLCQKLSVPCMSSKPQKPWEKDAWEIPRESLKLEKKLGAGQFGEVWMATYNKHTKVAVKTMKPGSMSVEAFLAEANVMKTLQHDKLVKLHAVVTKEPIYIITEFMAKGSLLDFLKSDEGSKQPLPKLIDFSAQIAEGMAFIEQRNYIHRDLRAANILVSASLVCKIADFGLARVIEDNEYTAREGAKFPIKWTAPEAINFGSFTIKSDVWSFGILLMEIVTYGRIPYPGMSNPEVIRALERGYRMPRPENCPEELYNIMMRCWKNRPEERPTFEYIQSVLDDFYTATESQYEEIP
Procedure: The ADP Quest assay (DiscoverRx), which fluorimetrically measures kinase activity as the production of ADP, was used to determine ABL kinase reaction velocities. Assays were performed in quadruplicate in black 384 well plates (Corning #3571) in reaction volumes of 10 μL/well. Recombinant kinase protein concentrations were fixed at 40 ng/well for the wild type ABL core, 9 ng/well for the high affinity linker ABL core, and 250 ng/well for the SRC family kinase HCK. […] Each kinase reaction was initiated by the addition of ATP and read at 5 min intervals for 3 h in a SpectraMax M5 Microplate reader (Molecular Devices). […] The resulting progress curves were analyzed according to the method of Moroco et al.. Briefly, raw fluorescence data were corrected for non-enzymatic ADP production (no kinase or substrate control) and kinase auto-phosphorylation (rate observed in the absence of substrate), and converted to pmol ADP produced using an ADP standard curve generated under the same reaction conditions. […] Substrate and ATP Km values were determined by non-linear regression analysis using the Michaelis-Menten equation (GraphPad Prism 6).

[5] = target: T5, ABL N32L protein (Ncap-SH3-SH2-linker) (Homo sapiens, UniProt P00519, DEL15-56); assay: Fluorescence polarization (FP) assay, ABL N32L protein with p41 probe peptide; type: binding
T5 construct: corresponding to residues 2–255 with an internal deletion of residues 15–56; Gly-His6 (GHHHHHH) (N); made in house; host or cells: E. coli Rosetta2(DE3)pLysS
T5 sequence (P00519 with tags, fused parts or gaps isoform P00519-2 DEL15-56): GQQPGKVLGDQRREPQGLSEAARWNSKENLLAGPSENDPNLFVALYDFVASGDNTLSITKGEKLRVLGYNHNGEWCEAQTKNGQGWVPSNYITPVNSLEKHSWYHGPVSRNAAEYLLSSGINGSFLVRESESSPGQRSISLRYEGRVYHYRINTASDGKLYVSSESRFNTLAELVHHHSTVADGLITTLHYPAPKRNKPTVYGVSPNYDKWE
Procedure: as §1
A collection of 1200 FDA-approved small molecules (Prestwick Chemical, Inc.) was used in a pilot screen with the FP assay. Each library compound was screened at 10 μM and a final DMSO concentration of 1%. Compounds were added to 384-well assay plates first, followed by a pre-mixed complex of the ABL N32L protein (25 μg) and the p41 probe peptide (50 nM). Each plate also contained twenty-eight wells of the wild type N32L protein plus p41 probe and DMSO as positive controls as well as twenty-eight wells of mutant ABL N32L-W118A protein plus p41 probe peptide and DMSO as negative controls. Each plate was mixed on the shaker for 5 min, read three consecutive times, and the average FP signal for each well was calculated. To identify potential hit compounds, three measures were used: (i) average FP signal; (ii) control normalized percent inhibition, in which the FP signal with each compound was normalized to the mean FP signal of the positive and negative plate controls according to the formula: [(sample FP–mean FPWT) / (mean FPW118A –mean FPWT) x 100] [22, 23]; (iii) Z score, a statistical measure of variation of the mean sample FP signal that is independent of plate controls, calculated according to the formula: [(sample FP–mean FPsamples) / standard deviationsamples] [22, 23]. […]

ABL N32L WT protein = target: T6, ABL N32L WT protein (Homo sapiens, UniProt P00519, DEL15-56); assay: Differential scanning fluorimetry; type: binding; conditions: compound 100 μM, N32L 1 μM, vs DMSO
T6 construct: corresponding to residues 2–255 with an internal deletion of residues 15–56; Gly-His6 (GHHHHHH) (N); made in house; host or cells: E. coli Rosetta2(DE3)pLysS
Procedure: Hit compounds (100 μM) were pre-incubated with the ABL N32L WT protein (1 μM) for 30 minutes in bicine assay buffer (10 mM bicine, 150 mM NaCl, pH 8.0). SYPRO Orange (Sigma) was added at 5X final concentration and fluorimetry profiles were acquired with a StepOnePlus real-time quantitative PCR instrument (Applied Biosystems) and software (version 2.3). Assays were performed in duplicate in sealed MicroAmp Fast 96-well qPCR plates (Applied Biosystems), and control reactions without proteins were included to correct for background fluorescence. Assays were equilibrated at 25°C for 2 minutes, followed by an increase in temperature at the rate of 1% (1.6°C/min) to 99°C, with continuous data collection. Mean fluorescence intensities, after subtracting background fluorescence, were plotted against temperature. Non-linear regression analysis using the Boltzmann sigmoid function in GraphPad Prism 6 was used to determine the Tm values, the midpoint of the melt curve between the minimum and maximum fluorescence intensities.

ABL N32L protein = target: T7, ABL N32L protein (Homo sapiens, UniProt P00519, DEL15-56); assay: Surface plasmon resonance, immobilized ABL N32L; type: binding
T7 construct: corresponding to residues 2–255 with an internal deletion of residues 15–56; Gly-His6 (GHHHHHH) (N); made in house; host or cells: E. coli Rosetta2(DE3)pLysS
Procedure: as §2

T1 sequence (P00519 with tags, fused parts or gaps isoform P00519-2 DEL15-56): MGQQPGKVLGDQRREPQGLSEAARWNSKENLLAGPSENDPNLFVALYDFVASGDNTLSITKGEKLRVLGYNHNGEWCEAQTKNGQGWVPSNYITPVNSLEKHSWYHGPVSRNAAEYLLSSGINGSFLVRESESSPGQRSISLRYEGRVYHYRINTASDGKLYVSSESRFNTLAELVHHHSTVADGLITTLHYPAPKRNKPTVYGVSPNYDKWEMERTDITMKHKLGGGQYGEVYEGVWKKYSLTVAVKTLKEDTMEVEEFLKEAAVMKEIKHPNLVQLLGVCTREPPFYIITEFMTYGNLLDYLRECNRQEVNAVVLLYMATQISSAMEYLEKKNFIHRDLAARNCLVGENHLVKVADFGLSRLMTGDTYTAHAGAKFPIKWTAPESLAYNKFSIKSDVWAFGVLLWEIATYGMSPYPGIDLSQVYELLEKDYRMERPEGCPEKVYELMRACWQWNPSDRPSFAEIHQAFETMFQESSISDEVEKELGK

Compound	EC50 [1] [µM]	Effect on kinase activity of ABL core with HAL substitution [2]	Activation constant Kact [3] [µM]	Vmax [3] [µM]	Vmax/Kact [3]	Effect on ABL phosphorylation (pY412, pY245, pY89), compound alone [4]	FP signal with ABL SH3 protein over compound concentration range (ABL SH3 domain)	Kd (isolated ABL SH3 domain) [µM]	Effect on HCK reaction velocity (SRC-family kinase HCK)	Inhibition of FP signal relative to DMSO controls (retest) ([5]; 10 μM, quadruplicate, screening assay conditions, p < 0.05)	FP signal with ABL N32L protein over compound concentration range ([5]; significant inhibition at 3 and 10 μM)	Decrease in Tm (ABL N32L WT protein)	kon (ABL N32L protein; 1:1 Langmuir binding model, 25°C, read-out: Association rate constant) [M⁻¹ s⁻¹]	koff (ABL N32L protein; 1:1 Langmuir binding model, 25°C, read-out: Dissociation rate constant) [s⁻¹]	Kd (ABL N32L protein; SPR, ABL N32L protein, read-out: Equilibrium dissociation constant (KD), ratio kd/ka) [µM]	Stimulation of wild type ABL kinase activity relative to DMSO control ([3]; 10 μM, ATP and substrate at Km)	Effect on ABL phosphorylation (pY412, pY245, pY89) in the presence of DPH ([4]; compound 142 1–10 μM plus DPH 10 μM)	Effect of unlabeled peptide on FP signal (competition) ([5]; p41 probe 50 nM, N32L 20 μg/well, unlabeled peptide 2.5 to 100 μM)
5-(1,3-diaryl-1H-pyrazol-4-yl)hydantoin [DPH]	1.11 ± 0.5	did not activate	1.02 ± 0.07	1.90 ± 0.4	1.86	very small effect	–	–	–	–	–	–	–	–	–	–	–	–
OCCN(CCO)c1nc(N2CCCCC2)c2nc(N(CCO)CCO)nc(N3CCCCC3)c2n1 [compound 142, dipyridamole]	0.63 ± 0.07	did not affect	0.4 ± 0.02	3.2 ± 0.28	8.00	did not affect phosphorylation	concentration-dependent decrease	30	no effect	significant inhibition	concentration-dependent decrease	more than 2 °C	3870 ± 590000	0.027 ± 7.2e-05	6.9	about 40%	remarkable enhancement of phosphorylation	–
QKEGERALPSIP [non-specific peptide]	–	–	–	–	–	–	–	–	–	–	–	–	–	–	–	–	–	no effect

Reference: paper PMC4519180, “Fluorescence Polarization Screening Assays for Small Molecule Allosteric Modulators of ABL Kinase Function” (PLoS ONE, 2015)
